Calls of active or inactive are those of the source. No rule for the calls is given here.
system: Broad 7084-01 inhibitor HTS, set 2; assay: inhibitors in Broad screen 7084-01, set 2 (AID 977613);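 also: host cells are infected with parasite promastigotes that become internalized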

Row | Compound | active concentration
1 | COC(=O)[C@H]1[C@H](CO)[C@H]2Cn3c(ccc(-c4ccccc4OC)c3=O)[C@H]2N1C(=O)c1cnccn1 | > 10 µM (inactive)
2 | N#C[C@H]1[C@H](c2ccccc2-c2ccccc2F)[C@@H](CO)N1C(=O)C1CCC1 | > 10 µM (inactive)
3 | O=C(c1cccnc1)N1CC[C@@H]2[C@@H](CO)Nc3ccc(C4=CCCCC4)cc3[C@@H]21 | > 10 µM (inactive)
4 | COc1cccc(NC(=O)N2C[C@H](O)COC[C@H]3O[C@H](CC(=O)NC4CCC4)CC[C@@H]32)c1 | > 10 µM (inactive)
5 | CN1[C@@H]2CNc3ccccc3[C@@H]2[C@@H]1CO | > 10 µM (inactive)
6 | CC(=O)N1CC[C@@H]2[C@H](CO)Nc3ccc(C#Cc4cccnc4)cc3[C@@H]21 | > 10 µM (inactive)
7 | CCC(=O)N1C[C@@H]2[C@H](c3ccccc31)[C@H](CO)N2C(=O)CC | > 10 µM (inactive)
8 | C[C@H](O)C#Cc1ccc([C@H]2[C@@H](CO)N3CCCCN(C(=O)c4ccc5c(c4)OCO5)C[C@H]23)cc1 | > 10 µM (inactive)
9 | O=C1CNC[C@H]2[C@@H](c3ccc(C4=CCCC4)cc3)[C@H](CO)N12 | > 10 µM (inactive)
10 | CC=Cc1ccc2n(c1=O)C[C@H]1[C@H](CO)[C@@H](C(=O)NCC)[C@@H]2N1Cc1cccc(Cl)c1 (mixture of isomers) | > 10 µM (inactive)
11 | O=C(C1CCOCC1)N1CC2(C1)[C@H](c1ccccc1)[C@H](CO)N2CCC(F)(F)F | > 10 µM (inactive)
12 | COc1cccc(-c2ccc3c(c2)[C@H]2[C@H](CCN2C(=O)Cc2ccccc2)[C@H](CO)N3)c1 | > 10 µM (inactive)
13 | COc1ccc2c3c(n(C)c2c1)[C@@H](CO)N(C(=O)C1CC1)CC31CCN(Cc2cccc(F)c2)CC1 | > 10 µM (inactive)
14 | O=C(C1CCCCC1)N1CC(=O)N2[C@H](CO)[C@@H](c3ccc(-c4ccccc4F)cc3)[C@H]2C1 | > 10 µM (inactive)
15 | O=C(C[C@@H]1CC[C@H]2[C@@H](COC[C@@H](O)CN2C(=O)c2ccc(F)cc2)O1)NCc1cccc(F)c1 | > 10 µM (inactive)
16 | O=C(C[C@H]1CC[C@@H]2[C@H](COC[C@H](O)CN2C(=O)Cc2ccccc2)O1)NC1CCCC1 | > 10 µM (inactive)
17 | O=C(Nc1ccc(F)cc1)N1CC(=O)N2[C@H](CO)[C@@H](c3ccc(C#Cc4cccnc4)cc3)[C@H]2C1 | > 10 µM (inactive)
18 | C/C=C/c1ccc([C@@H]2[C@H]3CN(Cc4ccc(F)cc4)CC(=O)N3[C@H]2CO)cc1 | > 10 µM (inactive)
19 | Cc1ccccc1-c1ccccc1[C@@H]1[C@H](C#N)N(C(=O)c2cccc(F)c2)[C@H]1CO | > 10 µM (inactive)
20 | O=C(C[C@@H]1CC[C@H]2[C@@H](COC[C@@H](O)CN2C(=O)Nc2ccc(Cl)cc2)O1)NCC1CC1 | > 10 µM (inactive)
21 | CN(C)CCCNC(=O)C[C@H]1CC[C@H]2[C@@H](COC[C@@H](O)CN2CC2CC2)O1 | > 10 µM (inactive)
22 | CC(=O)N1CCCCN2[C@H](CO)[C@H](c3ccc(-c4ccccc4)cc3)[C@H]2C1 | > 10 µM (inactive)
23 | O=C(c1ccccc1)N1CC(=O)N2[C@H](C1)[C@@H](c1ccc(-c3ccccc3)cc1)[C@@H]2CO | > 10 µM (inactive)
24 | COc1ccc2c3c(n(C)c2c1)[C@@H](CO)N(C(=O)Nc1cccc(F)c1)CC31CN(Cc2nccs2)C1 | > 10 µM (inactive)

Row | Compound | active concentration
25 | CC(C)NC(=O)Nc1ccc2c(c1)C(=O)N(C)[C@@H]1CC[C@@H](CC(=O)NCc3ccc(F)cc3)O[C@H]1CO2 | > 10 µM (inactive)
26 | CCC(=O)N1CC(=O)N2[C@H](CO)[C@H](c3ccc(-c4ccc(C#N)cc4)cc3)[C@@H]2C1 | > 10 µM (inactive)
27 | CCCC#Cc1ccc([C@@H]2[C@H]3CN(C(=O)CN4CCOCC4)CC(=O)N3[C@H]2CO)cc1 | > 10 µM (inactive)
28 | O=C(C[C@H]1CC[C@@H]2[C@H](COC[C@H](O)CN2Cc2ccc(Cl)cc2)O1)NCc1ccccc1Cl | > 10 µM (inactive)
29 | O=C1CNC[C@H]2[C@@H](c3ccc(C#CC4CCCCC4)cc3)[C@@H](CO)N12 | > 10 µM (inactive)
30 | CN1CCCCN2[C@H](CO)[C@H](c3ccc(-c4ccc(F)cc4)cc3)[C@@H]2C1 | > 10 µM (inactive)
31 | O=C(C1CCOCC1)N1CC(=O)N2[C@H](C1)[C@H](c1ccc(-c3cccnc3)cc1)[C@@H]2CO | > 10 µM (inactive)
32 | O=C(C[C@@H]1CC[C@@H]2[C@H](COC[C@@H](O)CN2C(=O)c2ccccc2F)O1)NCc1ccccc1 | > 10 µM (inactive)
33 | COc1ccccc1CN1[C@@H]2c3ccc(C4=CCCC4)c(=O)n3C[C@H]1[C@H](CO)[C@H]2C(=O)N(C)C | > 10 µM (inactive)
34 | O=C(Nc1ccc(F)cc1)N1[C@@H]2CNc3ccccc3[C@@H]2[C@@H]1CO | > 10 µM (inactive)
35 | Cc1cccc(S(=O)(=O)N2C[C@@H](O)COC[C@@H]3O[C@H](CC(=O)Nc4ccccc4)CC[C@H]32)c1 | > 10 µM (inactive)
36 | COc1ccc2c3c([nH]c2c1)[C@H](CO)N(Cc1ccc(F)cc1)CC31CCN(C)CC1 | > 10 µM (inactive)
37 | COc1cccc(-c2ccc([C@@H]3[C@@H](CO)N4C(=O)CNC[C@H]34)cc2)c1 | > 10 µM (inactive)
38 | COc1ccccc1-c1ccc2n(c1=O)C[C@H]1[C@H](CO)[C@@H](C(=O)N3CCOCC3)[C@@H]2N1CC1CC1 | > 10 µM (inactive)
39 | COc1ccc2c3c([nH]c2c1)[C@@H](CO)N(S(C)(=O)=O)CC31CN(CC2CCOCC2)C1 | > 10 µM (inactive)
40 | COc1ccc(-c2ccccc2[C@H]2[C@@H](C#N)N(C(=O)C3CCCCC3)[C@H]2CO)cc1 | > 10 µM (inactive)
41 | C/C=C/c1ccc([C@H]2[C@@H](CO)N(C(=O)CN(C)C)C23CN(C(=O)C2CCC2)C3)cc1 | > 10 µM (inactive)
42 | COc1ccccc1NC(=O)N1C[C@@H]2[C@H](c3ccccc31)[C@@H](CO)N2C(C)=O | > 10 µM (inactive)
43 | Cc1ccccc1-c1ccccc1[C@@H]1[C@H](C#N)N(C(=O)c2ccccc2)[C@H]1CO | > 10 µM (inactive)
44 | CCCNC(=O)N1[C@@H]2Cn3c(ccc(-c4ccccc4OC)c3=O)[C@H]1[C@@H](C(=O)NCC)[C@@H]2CO | > 10 µM (inactive)
45 | Cc1ccccc1S(=O)(=O)N1CC[C@@H]2[C@@H](CO)Nc3ccc(C#Cc4ccccc4)cc3[C@@H]21 | > 10 µM (inactive)
46 | CCCNC(=O)N1[C@H](CO)[C@@H]2c3ccccc3N(C(=O)C3CCC3)C[C@@H]21 | > 10 µM (inactive)
47 | CN(C)C(=O)c1cccc(-c2ccc([C@@H]3[C@@H](CO)N4C(=O)CN(C(=O)C5CCC5)C[C@@H]34)cc2)c1 | > 10 µM (inactive)
48 | COc1ccc2c3c([nH]c2c1)[C@H](CO)N(CC1CC1)CC31CN(C(=O)c2ccc(F)cc2)C1 | > 10 µM (inactive)

Row | Compound | active concentration
49 | O=C(C[C@@H]1CC[C@H]2[C@@H](COC[C@@H](O)CN2S(=O)(=O)c2cccc(Cl)c2)O1)Nc1ccc(-c2ccccc2)cc1 | > 10 µM (inactive)
50 | O=S(=O)(c1ccc(F)cc1)N1C[C@H]2[C@@H](c3ccccc31)[C@@H](CO)N2Cc1ccccc1Cl | > 10 µM (inactive)
51 | O=C(NCc1cc(F)cc(F)c1)[C@@H]1[C@@H](CO)[C@@H]2Cn3c(cccc3=O)[C@H]1N2 | > 10 µM (inactive)
52 | O=C(C[C@@H]1CC[C@H]2[C@@H](COC[C@@H](O)CN2Cc2cc(F)cc(F)c2)O1)NC1CCC1 | > 10 µM (inactive)
53 | Cc1ccccc1-c1ccc([C@H]2[C@H](CO)N3C(=O)CN(S(C)(=O)=O)C[C@@H]23)cc1 | > 10 µM (inactive)
54 | CCC(=O)N1[C@@H](CO)[C@@H]2c3ccccc3N(S(=O)(=O)c3ccccc3C)C[C@@H]21 | > 10 µM (inactive)
55 | O=C(C[C@H]1CC[C@H]2[C@@H](COC[C@H](O)CN2C(=O)Nc2ccc(Cl)c(Cl)c2)O1)NCc1ccc(Cl)cc1 | > 10 µM (inactive)
56 | O=C1CNC[C@H]2[C@@H](c3ccc(-c4ccccc4F)cc3)[C@H](CO)N12 | > 10 µM (inactive)
57 | COc1ccccc1CN1CC[C@@H]2[C@H](CO)Nc3ccc(C#Cc4ccccc4)cc3[C@@H]21 | > 10 µM (inactive)
58 | COc1ccccc1-c1ccccc1[C@H]1[C@@H](CO)N(C(=O)C2CCOCC2)[C@H]1C#N | > 10 µM (inactive)
59 | COc1cccc(C#Cc2ccc([C@H]3[C@H](CO)N4C(=O)CN(C(=O)Cc5cccnc5)C[C@@H]34)cc2)c1 | > 10 µM (inactive)
60 | OC[C@@H]1[C@H]2c3ccccc3NC[C@H]2N1CC1CCOCC1 | > 10 µM (inactive)
61 | CN1CCCCN2[C@H](CO)[C@@H](c3ccc(-c4ccc(F)cc4)cc3)[C@@H]2C1 | > 10 µM (inactive)
62 | COCC#Cc1ccc([C@@H]2[C@H]3CN(C(=O)Nc4ccccc4F)CC(=O)N3[C@H]2CO)cc1 | > 10 µM (inactive)
63 | COc1ccccc1-c1ccccc1[C@H]1[C@@H](C#N)N(C(=O)CN(C)C)[C@@H]1CO | > 10 µM (inactive)
64 | CN1C(=O)c2cc(NS(C)(=O)=O)ccc2OC[C@@H]2O[C@@H](CC(=O)NC3CCCCC3)CC[C@H]21 | > 10 µM (inactive)
65 | O=C1CNC[C@@H]2[C@@H](c3ccc(-c4ccccc4F)cc3)[C@H](CO)N12 | > 10 µM (inactive)
66 | O=C1CNC[C@@H]2[C@@H](c3ccc(-c4ccccc4F)cc3)[C@@H](CO)N12 | > 10 µM (inactive)
67 | Cc1ccc(CN2CC(=O)N3[C@H](CO)[C@@H](c4ccc(-c5ccccc5F)cc4)[C@H]3C2)cc1 | > 10 µM (inactive)
68 | N#C[C@@H]1[C@H](c2ccccc2C2=CCCCC2)[C@H](CO)N1S(=O)(=O)c1cccc(F)c1 | > 10 µM (inactive)
69 | COc1cccc(-c2ccc3c(c2)[C@H]2[C@H](CCN2S(=O)(=O)c2cn(C)cn2)[C@H](CO)N3)c1 | > 10 µM (inactive)
70 | CC=Cc1ccc2n(c1=O)C[C@H]1[C@H](CO)[C@@H](C(=O)N[C@@H](C)c3ccccc3)N(C(=O)c3cnccn3)[C@@H]21 (mixture of isomers) | > 10 µM (inactive)
71 | CCC(=O)N1CC2(CN(C(C)=O)C2)c2c([nH]c3cc(OC)ccc23)[C@@H]1CO | > 10 µM (inactive)

From PubChem BioAssay AID977613 (Broad Institute, 2014)
